Key:
[1] = system: strips of cavernous body isolated from mice; experiment: Relaxation of cavernous-body strips pre-contracted with phenylephrine; settings: acetylcholine 10^-4 M (control); pre-contracted by phenylephrine 10^-5 M
From the text: FIG. 5—Effects of the toxin PnTx2-6 and of the peptide PnTx(19) (1×10^-6M) on the relaxation of strips of cavernous goodies of mice. The strips were pre-contracted with phenylefrine (10^-5 M) and relaxed with acetylcholine (10^-4M)-control, PnTx2-6 (5×10^-8M) and PnTx(19) (x10-6 M) (n=3).
Mice were sacrificed by decapitation, their penis were removed surgically and placed on a Petri dish containing Krebs Ringer bicarbonate—(NaCl, 118.1; KCl, 4.7; KH2PO4, 1.0; MgSo4, 1.0: NaHCO3, 25.0; CaCl2, 2.55; and Glucose, 11.1 mM), bubbled with a mixture of 95% O2 and 5% CO2. The gland, the spongy body and the urethra were removed and the cavernous bodies were desiccated with removal of the tunica albuginea and separated by cutting the fibrous septum between them. The strips of cavernous bodies measuring about 1×1×7 mm were mounted separately in a chamber, one end thereof being secured to an electrode and the other linked to a transducer. […]
The tissue was stretched by a passive force of 2.0 mN and stabilized for 60 minutes, the solution being replaced every 15 minutes. The changes in isometric force were recorded by using an isometric force transducer (World Precision Instruments, Inc., Sarasota, Fla., USA), connected to an amplifier (TBM-4 model; World Precision Instruments, Inc., USA), using software WinDaq Data Acquisition (Dada® Instruments, USA). […]

[2] = system: channels for sodium Nav1.5, present in cardiomyocytes; experiment: Patch-clamp of cardiac sodium current; assay type: cell-based; settings: PnTx-19 1 μM
From the text: FIG. 6—Effects of the peptide PnTx-19 and of the toxin PnTx2-6 in the cardiac sodium current. A—Effect of the toxin PnTx2-6 on the peak of sodium current (black arrow) and in the inactivation current (gray arrow). C—Effect of the peptide PnTx-19 on the peak of the sodium current and in the inactivation current. D—Course of time of peak in the sodium current, during the perfusion of PnTx-19 and PnTx-26. Each black circle indicates the amplitude of the Ina, measured every 1 second in a membrane potential of −20 mV. The gray bars indicate the moment when the cell was exposed to PnTx2-6 or PnTX-19 (peptide). The bar graphs summarize the effects of PnTx2-6 500 nM (n=7) and of the peptide PnTx-19 (peptide) 1 μM (n=12) in the decay constant (E) and reduction of the sodium current (F). Bars indicate average±SEM, *p<0.05 with respect to the controls.
Patch-clamp experiments were carried out with a view to analyze the effects of the toxin PnTx2-6 and of the peptide PnTx-19 on channels for sodium Nav1.5, present in cardiomyocytes.

[3] = system: cerebrocortical synaptosomes; experiment: Synaptosomal viability (lactate dehydrogenase activity, % lysis vs Triton X-100); assay type: cell-based, rat; settings: for lysis (LDH activity relative to Triton X-100 = 100% of lysis): 60 min incubation
Protocol: FIG. 3—Synaptosomal viability—verified by the activity of the enzyme lactate dehydrogenase, which oxidizes the NADH to NAD+. The latter determines a reduction in the reading (339 nm), which enables one to qualify the enzymatic activity. The reaction mixture was incubated for 60 min with PnTx(19) (10^-5 M; 3×10^-5 M; 10^-6 M; 3×10^-6 M) and the activity percentage evaluated with respect to the lysis triggered by the Triton X-100, considered=100% of lysis. The activity of this enzyme is proportional to the breakage of the synaptosomes, considering that this is an enzyme of the intracellular compartment.
Adult rats (240-300 g) were decapitated the brains were rapidly removed, immersed into homogenization solution (sucrose 0.32 M, EDTA 1 Mm and Dithiotreitol (DTT) 0.25 mM, pH=7.4) and kept in ice, then they were used in preparing the synaptosomes, as previously described by Dunkley et al 1988 (DUNKLEY, P. R.; Brain Research, 441, 59-71, 1988).
As control of the viability of the synaptosomes and also for verifying a possible lytic activity of the peptide, one carried out tests for activity of the enzyme lactate dehydrogenase, according to Kubowistz, Ott, 1943 (KUBOWISTZ, F., OTT, C. Biochem Z. 319, 94-117, 1943).

[4] = system: Swiss mice; experiment: Immunogenicity after subcutaneous immunization (indirect ELISA antibody titer); assay type: in vivo; settings: 10 μg subcutaneous, during the assays
Protocol: FIG. 8—Analysis of the antibody titer. A) Control: adjuvant (aluminum hydroxide). B) antibody titer after administration of the peptide PnTx-19 (10 μG) in different days.
Swiss, male, 20-23 gram mice were divided into 2 groups (Control—Adjuvant: aluminum hydroxide—FIG. 8 A and PnTx-19-10 μG—FIG. 8B), each group containing 4 animals. The mice were immunized by subcutaneous route. 21, 35 and 49 days from the first inoculation, the mice received a reinforcement of the above-mentioned preparations. To verify the presence of antibodies against the PnTx-19, the serum collected from the mouse tails was evaluated 15, 30, 40 and 60 days after the first inoculation through the indirect immunoenzymatic assay (ELISA), as described for other preparations (DEL PINO, F. A. B., BRANDELLI, A., GONZALES, J. C., HENRIQUES, J. A. P., DEWES, H., Effect of antibodies against β-N-acetylglucosaminidase on reproductive efficiency of the bovine tick Boophilus microplus. Vet. Parasitol. 79, 247-255, 1998).

[5] = system: cerebrocortical synaptosomes of rats; experiment: Release of L-glutamate from cerebrocortical synaptosomes; assay type: cell-based, rat; settings: 3×10^-5 M, compared with control (untreated synaptosomes), only active concentration of 10-6 to 3×10^-5 M
Protocol: FIG. 4—Effect of different concentrations of the PnTx(19) in releasing L-glutamate—ELISA Plate containing 300 μl/well of the synaptosome mixture (10% final volume) and NADP+(final concentration of 1 mM) in KRH with calcium (2 mM), kept at 37° C. under constant stirring was monitored. One carried out the reading of the fluorescence on the spectrofluorimeter for 2460 seconds. The enzyme GDH (35 units for the final volume of 300 μl) was added to the wells at 60 seconds; at 660 seconds, in different wells, one added different concentrations of PnTx(19) (“10^-5M, 3×10^-5 M, 10^-6 M and 3×10^-6 M”) and the KCI (33 mM). As negative controls, one used wells containing untreated synaptosomes […]. […]
The release of L-glutamate was analyzed according to the proposal of Nicholls et al. 1987 (NICHOLLS, D. et al. J. Neurochem. 49, 5057, 1987). In order to evaluate whether the peptide was capable of inducing release of L-glutamate in cerebrocortical synoptosomes of rats, just as the native toxin, one analyzed the effect thereof at the following concentrations: 10^-5M, 3×10^-5M, 10^-6M, and 2×10^-6 M, […].

[6] = system: isolated perfused heart; experiment: Isolated perfused heart: ventricular pressure, heart rate and ±dP/dt; design: species or system rats; settings: peptide 37.8 nmol/L-37.8 μmol/L
Protocol: FIG. 7—Response dose curve of the peptide PnTx-19 and of the Toxin PnTx2-6 in the right (A) and (B) ventricular pressure, derived±dP/dt (C and D) and cardiac rate (E) of rats.
The rats were kept under a controlled cycle of 12 h light/darkness at a stable temperature with free access to water and food. They were decapitated 10 to 15 minutes after intraperitoneal injection of Heparin (200 IU). The thorax was opened, the heart was carefully desiccated and perfused through an aortic tip with Krebs-Ringer solution (KRS) containing (by mmol/L) NaCl (118.4), KCl (4.7), KH2PO4 (1.2), MgSO4.7H2O (1.2), CaCl2.2H2O (1.25), glucose (11.7) and NaHCO3 (26.5). The perfusion flow was kept constant (10 mL/min) at 37° C. and under constant oxygenation (5% CO2 and 95% O2). A balloon connected to a pressure transducer was inserted into the right ventricle, and one monitored the ventricular pressure, heart rate and derivative±dP/dt (FIG. 7). The balloon volume was adjusted to a final diastolic pressure of about 10 mm Hg. After a period for reaching the balance (30 to 40 minutes), 100 μmol/L carrier were injected (control), toxin at concentrations of 37.8 nmol/L-3.78 μmol/L or a peptide at concentrations of 37.8 nmol/L-37.8 μmol/L in perfusion buffer.
The results are the average±SEM. […]

[7] = Water solubility of the peptide; assay type: physicochemical; settings: acetylated and amidated peptide
From the text: With a view to increasing the solubility of the peptide, in the present technology one has synthetized the PnTx(19) with modifications in the N-terminal portion (acetylation) and C-terminal portion (amidation).

Molecule	relaxation of cavernous-body strips [1]	effect on density of the sodium current [2]	effect on peak of sodium current and inactivation current [2]	lysis (LDH activity relative to Triton X-100 = 100% of lysis) ([3]; 3×10^-5 M)	lysis (LDH activity relative to Triton X-100 = 100% of lysis) ([3]; 3×10^-6 M)	lysis (LDH activity relative to Triton X-100 = 100% of lysis) ([3]; 10^-5 M)	effect on synaptosomal viability and/or exocytotic machinery ([3]; 10^-6 M to 3×10^-5 M, compared with control (absence of the peptide))	lysis (LDH activity relative to Triton X-100 = 100% of lysis) ([3]; 10^-6 M)	hypersensitivity or death reactions of the animals [4]	release of L-glutamate [5]	release of L-glutamate ([5]; listed as PnTx19)	effect on ventricular pressure, ±dP/dt and heart rate [6]	solubility in water [7]
CC(=O)OCC[N+](C)(C)C [acetylcholine]	81.6%	–	–	–	–	–	–	–	–	–	–	–	–
Ac-GERRQYFWIAWYKLANSKK-NH2 [PnTx(19)]	–	this phenomenon was not observed	These effects were not observed	2%	9%	3.4%	does not affect the synaptosomal viability and/or exocytotic machinery	6%	No hypersensitivity or death reactions	induced an increase in the release of glutamate	capable of inducing significant release of L-glutamate	did not alter any of these parameters	water-soluble
